Holding throughout (type): functional
Experiment [1] deals with Ribosomal protein S6 kinase alpha-3 (Homo sapiens, UniProt P51812).
In experiment [2] the target is Ribosomal protein S6 kinase beta-1 (Homo sapiens, UniProt P23443).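 Also: measured as one member of a kinome-wide profiling panel.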
The target in experiment [3] is MAP kinase-activated protein kinase 2 (Homo sapiens, UniProt P49137).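 Also: measured as one member of a kinome-wide kinase panel.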
Experiment [4] deals with Glycogen synthase kinase-3 beta (Homo sapiens, UniProt P49841).
Experiment [5] concerns the target Casein kinase I isoform alpha (Homo sapiens, UniProt P48729).
The target in experiment [6] is Dual specificity protein kinase CLK4 (Homo sapiens, UniProt Q9HAZ1).
Experiment [7] deals with T1, DNA dC->dU-editing enzyme APOBEC-3A (Homo sapiens, UniProt P31941). Put plainly: SAR analysis of small molecule inhibitors of APOBEC3A DNA Deaminase via a fluorescence-based single-stranded DNA deaminase assay - Set 2. The note with it: read-out: IC50_Mean.
T1 sequence (P31941 whole entry): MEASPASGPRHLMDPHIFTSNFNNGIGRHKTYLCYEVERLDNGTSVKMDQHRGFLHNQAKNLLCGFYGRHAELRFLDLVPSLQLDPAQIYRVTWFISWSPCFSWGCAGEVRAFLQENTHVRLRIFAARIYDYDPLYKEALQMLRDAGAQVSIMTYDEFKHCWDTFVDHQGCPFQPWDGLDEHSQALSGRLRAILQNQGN
The target of experiment [8] is T2, DNA dC->dU-editing enzyme APOBEC-3G (Homo sapiens, UniProt Q9HC16). Kind of experiment: SAR analysis of small molecule inhibitors of APOBEC3G DNA Deaminase via a fluorescence-based single-stranded DNA deaminase assay - Set 2. The note with it: read-out: IC50_Mean.
T2 sequence (Q9HC16 whole entry): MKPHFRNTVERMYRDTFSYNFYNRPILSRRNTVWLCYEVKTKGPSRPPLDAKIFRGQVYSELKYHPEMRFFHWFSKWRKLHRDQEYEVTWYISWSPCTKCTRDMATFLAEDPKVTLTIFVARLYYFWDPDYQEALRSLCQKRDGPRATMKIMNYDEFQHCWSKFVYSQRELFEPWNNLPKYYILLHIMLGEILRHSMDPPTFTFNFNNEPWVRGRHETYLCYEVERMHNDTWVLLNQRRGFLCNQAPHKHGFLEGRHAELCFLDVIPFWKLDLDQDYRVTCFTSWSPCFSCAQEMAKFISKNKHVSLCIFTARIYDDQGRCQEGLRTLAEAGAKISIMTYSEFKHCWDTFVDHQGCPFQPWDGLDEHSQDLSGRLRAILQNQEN
Experiment [9] addresses Multidrug resistance protein CDR2 (Candida albicans (strain SC5314 / ATCC MYA-2876) (Yeast), UniProt P78595). Put plainly: inhibition of Nile Red efflux via Candida CDR2 – S. cerevisiae AD1-8u, singleplex, Cherry Pick1 hits, dose response (AID 588604).
The target of experiment [10] is ALK tyrosine kinase receptor (Homo sapiens, UniProt Q9UM73).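 Also: ALK tested as one member of a kinase panel screen.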
Experiment [11] addresses Cyclin-dependent kinase 19 (Homo sapiens, UniProt Q9BWU1). Put plainly: Navigating the Kinome. Panel member name: CDC2L6.
Experiment [12] deals with Protein disulfide-isomerase (Homo sapiens, UniProt P07237). Kind of experiment: inhibition of PDI-driven insulin aggregation – biochemical, turbidity, absorbance, cherry-picked samples, dose response (AID 602350).
For experiment [13], the target named is Melanin-concentrating hormone receptor 1 (Homo sapiens, UniProt Q99705). Kind of experiment: Late-stage fluorescence-based counterscreen for antagonists of the G-protein coupled receptor 7 (GPR7): cell-based dose response assay to identify antagonists of the melanin-concentrating hormone receptor 1 (MCHR1) Set 5. (The purpose of a counterscreen is to sort out artefacts and off-target activity.)

Experiment [14] addresses T3, Polyadenylate-binding protein 1 (Homo sapiens, UniProt P11940). Put plainly: MLLE domain peptide-binding blockers, IC50 – biochemical, fluorescence polarization, FITC-PAM2 peptide, dose response (AID 602259). To be noted: read-out: IC50_Mean. (In general: Fluorescence polarisation rises when a labelled molecule tumbles more slowly, as on binding a larger partner.)
Experiment [15] has as its target T4, High affinity choline transporter 1 (Homo sapiens, UniProt Q9GZV3).
T4 sequence (Q9GZV3 whole entry): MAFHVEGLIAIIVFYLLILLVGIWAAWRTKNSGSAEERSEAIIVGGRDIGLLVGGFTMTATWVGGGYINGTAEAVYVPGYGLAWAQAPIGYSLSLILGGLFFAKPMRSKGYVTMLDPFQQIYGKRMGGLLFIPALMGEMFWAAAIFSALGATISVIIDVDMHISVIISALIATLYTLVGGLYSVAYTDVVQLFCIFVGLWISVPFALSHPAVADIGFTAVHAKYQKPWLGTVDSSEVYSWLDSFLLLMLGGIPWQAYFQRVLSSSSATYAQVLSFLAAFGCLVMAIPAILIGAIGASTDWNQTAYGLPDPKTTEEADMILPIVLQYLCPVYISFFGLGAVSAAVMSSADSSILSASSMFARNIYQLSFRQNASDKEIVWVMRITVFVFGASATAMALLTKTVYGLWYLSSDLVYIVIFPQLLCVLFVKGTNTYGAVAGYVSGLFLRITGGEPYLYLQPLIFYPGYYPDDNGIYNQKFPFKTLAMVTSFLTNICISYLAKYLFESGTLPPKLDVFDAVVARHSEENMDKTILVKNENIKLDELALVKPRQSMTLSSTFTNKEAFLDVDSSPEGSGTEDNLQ
Kind of experiment: human choline transporter blockers, potency – cell-based, 10-point CRC, membrane potential dye, dose response (AID 588401).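 Also: membrane potential dye fluorescence of choline-evoked depolarization via CHT.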

Experiment [16] addresses T3, Polyadenylate-binding protein 1. Kind of experiment: MLLE binding blockers, Cy5 peptide tracer – biochemical, fluorescence polarization, Cy5-PAM2 peptide, secondary, miRNA deadenylation inhibitor project, dose response (AID 602260). To be noted: read-out: IC50_Mean.
Experiment [17] deals with T4, High affinity choline transporter 1. Put plainly: human choline transporter blockers, potency – cell-based, 5-point CRC, membrane potential dye, dose response (AID 504840).
In experiment [18] the target is T1, DNA dC->dU-editing enzyme APOBEC-3A. Kind of experiment: SAR analysis of small molecule inhibitors of APOBEC3A DNA Deaminase via a fluorescence-based single-stranded DNA deaminase assay. To be noted: read-out: IC50_Mean.
Experiment [19] deals with T2, DNA dC->dU-editing enzyme APOBEC-3G. Kind of experiment: inhibition of APOBEC3G ssDNA deamination – biochemical, fluorescence, single-stranded DNA substrate, SAR follow-up (AID 602136). The note with it: read-out: IC50_Mean.
Experiment [20] deals with Serine/threonine-protein kinase TAO1 (Homo sapiens, UniProt Q7L7X3).
Chain of Serine/threonine-protein kinase TAO1 (Q7L7X3 whole entry): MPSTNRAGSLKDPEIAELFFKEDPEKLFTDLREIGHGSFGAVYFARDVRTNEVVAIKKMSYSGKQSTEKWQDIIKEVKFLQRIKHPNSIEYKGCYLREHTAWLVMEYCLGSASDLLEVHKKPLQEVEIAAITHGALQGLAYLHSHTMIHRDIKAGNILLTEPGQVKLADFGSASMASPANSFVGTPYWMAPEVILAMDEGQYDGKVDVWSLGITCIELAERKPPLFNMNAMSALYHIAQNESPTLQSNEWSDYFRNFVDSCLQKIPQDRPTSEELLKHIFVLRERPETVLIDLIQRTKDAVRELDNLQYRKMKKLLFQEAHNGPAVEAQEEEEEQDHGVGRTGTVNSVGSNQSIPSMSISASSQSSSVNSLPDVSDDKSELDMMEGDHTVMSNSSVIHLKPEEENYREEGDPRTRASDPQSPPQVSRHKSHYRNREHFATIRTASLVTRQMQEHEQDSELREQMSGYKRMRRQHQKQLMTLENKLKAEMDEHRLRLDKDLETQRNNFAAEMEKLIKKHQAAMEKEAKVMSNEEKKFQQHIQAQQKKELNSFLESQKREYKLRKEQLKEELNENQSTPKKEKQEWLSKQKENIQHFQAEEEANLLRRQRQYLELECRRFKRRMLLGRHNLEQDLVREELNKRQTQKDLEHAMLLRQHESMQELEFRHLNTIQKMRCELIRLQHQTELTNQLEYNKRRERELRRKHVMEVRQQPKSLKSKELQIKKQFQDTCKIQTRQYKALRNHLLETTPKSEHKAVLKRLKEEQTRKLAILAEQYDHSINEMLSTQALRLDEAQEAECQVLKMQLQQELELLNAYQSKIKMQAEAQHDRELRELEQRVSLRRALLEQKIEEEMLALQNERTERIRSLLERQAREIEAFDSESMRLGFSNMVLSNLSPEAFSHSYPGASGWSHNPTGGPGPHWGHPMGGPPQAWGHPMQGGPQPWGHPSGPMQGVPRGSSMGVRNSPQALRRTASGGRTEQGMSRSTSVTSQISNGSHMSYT
Experiment [21] concerns the target Serine/threonine-protein kinase D3 (Homo sapiens, UniProt O94806).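 Also: determined within a kinase panel screen, with PRKCN as the panel member.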
In experiment [22] the target is BDNF/NT-3 growth factors receptor (Homo sapiens, UniProt Q16620).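 Also: NTRK2 measured as one member of a broad kinome-wide kinase profiling panel.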
Experiment [23] has as its target Tyrosine-protein kinase receptor TYRO3 (Homo sapiens, UniProt Q06418).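 Also: TYRO3 value obtained as one member of a kinome-wide profiling panel.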
Experiment [24] concerns the target MAP/microtubule affinity-regulating kinase 3 (Homo sapiens, UniProt P27448).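 Also: MARK3 affinity measured as one member of a kinome panel.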
Experiment [25] addresses Macrophage-stimulating protein receptor (Homo sapiens, UniProt Q04912). Put plainly: Navigating the Kinome. Panel member name: MST1R.
Experiment [26] concerns the target Death-associated protein kinase 3 (Homo sapiens, UniProt O43293).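 Also: measured as one member of a kinome-wide profiling panel.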
For experiment [27], the target named is Mitogen-activated protein kinase kinase kinase kinase 2 (Homo sapiens, UniProt Q12851).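 Also: measured as one member of a kinome-wide kinase panel, with MAP4K2 as the panel entry.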
In experiment [28] the target is Glycogen synthase kinase-3 alpha (Homo sapiens, UniProt P49840).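 Also: GSK3A result taken from a broad kinome-wide kinase panel.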
The target in experiment [29] is Maternal embryonic leucine zipper kinase (Homo sapiens, UniProt Q14680).
For experiment [30], the target named is Leukocyte tyrosine kinase receptor (Homo sapiens, UniProt P29376). Kind of experiment: Navigating the Kinome. Panel member name: LTK.
Experiment [31] deals with Serine/threonine-protein kinase SIK2 (Homo sapiens, UniProt Q9H0K1). Put plainly: Navigating the Kinome. Panel member name: SIK2.
Experiment [32] has as its target Dual specificity tyrosine-phosphorylation-regulated kinase 1B (Homo sapiens, UniProt Q9Y463). Kind of experiment: Navigating the Kinome. Panel member name: DYRK1B.
Experiment [33] has as its target Proto-oncogene tyrosine-protein kinase ROS (Homo sapiens, UniProt P08922).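 Also: ROS1 tested as one member of a kinome-wide kinase panel.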
Experiment [34] has as its target MAP/microtubule affinity-regulating kinase 4 (Homo sapiens, UniProt Q96L34). Kind of experiment: Navigating the Kinome. Panel member name: MARK4.
The target in experiment [35] is T4, High affinity choline transporter 1. Kind of experiment: human choline transporter potentiators, potency – cell-based, 10-point CRC, membrane potential dye, dose response (AID 602376).

Molecules are shown by their SMILES. The source made the active and inactive calls.

T3 sequence (P11940 whole entry, the tested form may be a part): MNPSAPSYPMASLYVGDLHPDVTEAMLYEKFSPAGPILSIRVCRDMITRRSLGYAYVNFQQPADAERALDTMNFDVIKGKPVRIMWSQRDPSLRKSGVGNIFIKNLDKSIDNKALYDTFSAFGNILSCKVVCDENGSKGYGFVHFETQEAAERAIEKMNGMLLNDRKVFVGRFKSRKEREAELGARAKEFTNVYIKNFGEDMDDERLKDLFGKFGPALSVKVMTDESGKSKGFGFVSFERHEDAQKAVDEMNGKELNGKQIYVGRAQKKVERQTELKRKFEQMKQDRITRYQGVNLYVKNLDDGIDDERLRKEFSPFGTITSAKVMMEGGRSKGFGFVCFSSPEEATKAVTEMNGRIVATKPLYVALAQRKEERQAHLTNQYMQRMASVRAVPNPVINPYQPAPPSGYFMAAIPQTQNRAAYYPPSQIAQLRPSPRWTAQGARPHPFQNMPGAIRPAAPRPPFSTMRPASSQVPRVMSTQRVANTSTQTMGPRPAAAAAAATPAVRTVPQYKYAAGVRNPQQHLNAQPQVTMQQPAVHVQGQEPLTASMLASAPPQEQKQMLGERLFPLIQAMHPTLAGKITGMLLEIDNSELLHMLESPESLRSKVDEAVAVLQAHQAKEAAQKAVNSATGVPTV
Chain of Proto-oncogene tyrosine-protein kinase ROS (P08922 whole entry): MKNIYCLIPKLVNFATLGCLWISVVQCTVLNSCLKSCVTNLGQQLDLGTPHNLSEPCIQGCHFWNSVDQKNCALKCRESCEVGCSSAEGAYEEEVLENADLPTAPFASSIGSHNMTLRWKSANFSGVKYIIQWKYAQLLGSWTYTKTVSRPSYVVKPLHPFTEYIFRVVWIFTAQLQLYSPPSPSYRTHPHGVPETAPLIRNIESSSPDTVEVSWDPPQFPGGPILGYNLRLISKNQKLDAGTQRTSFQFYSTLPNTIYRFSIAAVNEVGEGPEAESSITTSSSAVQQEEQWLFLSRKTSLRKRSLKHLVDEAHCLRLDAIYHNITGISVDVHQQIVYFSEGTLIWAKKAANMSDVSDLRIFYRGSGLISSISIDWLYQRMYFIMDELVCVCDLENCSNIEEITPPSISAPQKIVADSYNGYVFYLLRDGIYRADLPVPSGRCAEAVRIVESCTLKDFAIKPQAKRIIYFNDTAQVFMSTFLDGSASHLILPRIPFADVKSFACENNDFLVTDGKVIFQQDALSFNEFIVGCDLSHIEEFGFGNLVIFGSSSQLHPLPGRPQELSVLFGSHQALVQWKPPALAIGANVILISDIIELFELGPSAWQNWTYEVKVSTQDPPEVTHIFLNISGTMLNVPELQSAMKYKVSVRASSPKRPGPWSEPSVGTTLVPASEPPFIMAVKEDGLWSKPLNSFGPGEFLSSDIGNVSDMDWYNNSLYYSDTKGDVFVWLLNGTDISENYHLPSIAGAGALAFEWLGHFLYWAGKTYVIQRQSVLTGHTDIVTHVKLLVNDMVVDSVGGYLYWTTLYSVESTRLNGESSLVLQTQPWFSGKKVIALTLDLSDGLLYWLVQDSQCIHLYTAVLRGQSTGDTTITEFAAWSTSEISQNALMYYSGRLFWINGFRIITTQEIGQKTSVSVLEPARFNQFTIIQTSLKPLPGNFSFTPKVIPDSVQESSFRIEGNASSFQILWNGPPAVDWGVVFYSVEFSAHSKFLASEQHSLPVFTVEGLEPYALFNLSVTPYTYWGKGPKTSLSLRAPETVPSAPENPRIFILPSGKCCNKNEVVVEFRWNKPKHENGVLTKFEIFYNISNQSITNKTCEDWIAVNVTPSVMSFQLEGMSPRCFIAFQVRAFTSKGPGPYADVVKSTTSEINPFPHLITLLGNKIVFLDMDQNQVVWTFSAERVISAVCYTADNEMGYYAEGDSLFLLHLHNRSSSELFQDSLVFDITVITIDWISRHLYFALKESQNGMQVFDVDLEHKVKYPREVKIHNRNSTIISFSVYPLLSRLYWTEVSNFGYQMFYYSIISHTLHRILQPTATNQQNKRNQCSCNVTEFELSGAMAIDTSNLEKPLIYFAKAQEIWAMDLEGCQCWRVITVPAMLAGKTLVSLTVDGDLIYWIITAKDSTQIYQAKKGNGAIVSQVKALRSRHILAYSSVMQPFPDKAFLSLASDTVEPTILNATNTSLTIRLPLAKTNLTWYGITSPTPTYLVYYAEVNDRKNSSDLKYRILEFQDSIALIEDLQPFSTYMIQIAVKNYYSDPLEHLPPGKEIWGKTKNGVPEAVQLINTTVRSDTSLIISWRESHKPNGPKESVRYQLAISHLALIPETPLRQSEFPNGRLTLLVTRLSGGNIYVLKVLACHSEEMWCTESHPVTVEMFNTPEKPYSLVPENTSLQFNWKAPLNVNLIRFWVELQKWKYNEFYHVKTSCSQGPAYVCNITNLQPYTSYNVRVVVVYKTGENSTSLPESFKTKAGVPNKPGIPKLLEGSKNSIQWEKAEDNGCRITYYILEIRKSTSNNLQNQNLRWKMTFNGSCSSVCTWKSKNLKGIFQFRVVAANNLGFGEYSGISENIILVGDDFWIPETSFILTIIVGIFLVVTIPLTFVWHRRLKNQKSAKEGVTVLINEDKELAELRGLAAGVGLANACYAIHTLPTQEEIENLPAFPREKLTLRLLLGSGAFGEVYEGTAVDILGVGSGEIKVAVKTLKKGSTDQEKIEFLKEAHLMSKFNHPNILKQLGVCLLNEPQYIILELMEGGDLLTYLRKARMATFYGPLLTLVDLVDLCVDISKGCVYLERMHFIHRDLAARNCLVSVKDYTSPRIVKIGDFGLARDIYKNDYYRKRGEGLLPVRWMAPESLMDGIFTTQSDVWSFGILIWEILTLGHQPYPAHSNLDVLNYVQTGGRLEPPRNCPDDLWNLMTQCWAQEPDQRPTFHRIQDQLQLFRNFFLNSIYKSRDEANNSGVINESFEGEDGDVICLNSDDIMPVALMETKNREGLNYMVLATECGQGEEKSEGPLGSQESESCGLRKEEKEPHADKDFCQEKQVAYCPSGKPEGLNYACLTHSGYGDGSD
Chain of Casein kinase I isoform alpha (P48729 whole entry, canonical isoform): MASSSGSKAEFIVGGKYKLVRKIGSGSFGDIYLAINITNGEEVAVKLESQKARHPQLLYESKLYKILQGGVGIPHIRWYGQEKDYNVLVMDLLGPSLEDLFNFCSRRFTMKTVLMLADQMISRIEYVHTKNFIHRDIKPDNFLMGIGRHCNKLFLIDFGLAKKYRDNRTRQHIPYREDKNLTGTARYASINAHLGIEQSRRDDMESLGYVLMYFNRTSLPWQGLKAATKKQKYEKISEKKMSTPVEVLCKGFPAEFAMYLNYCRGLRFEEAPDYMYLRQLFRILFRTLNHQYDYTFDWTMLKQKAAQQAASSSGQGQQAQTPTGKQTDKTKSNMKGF

The term Ki denotes a measure of affinity in units of concentration, obtained from inhibition or displacement. `CCOC(=O)c1c(NC(=O)C2C(C)(C)C2(C)C)sc2cnccc12`: the inhibitory constant (Ki) in experiment [1] was 6310 nM (active); in experiment [2], 2510 nM (active); in experiment [3], 6310 nM (active); in experiment [4] it was 3980 nM (active).

For `Nc1nnc(-c2ccccc2)c(N)n1`, the Ki in [5] is 20000 nM (active); in experiment [6] it was 39800 nM (active).

On to `CCc1nc2sc3c(c2c2nnc(S)n12)CCC(C)C3` (stereo not given), for which the IC50 in [7] and in [8] was > 99000 nM (inactive) each time.

Broadly, the EC50 is the concentration giving half of the maximal effect. Regarding `COc1ccc(-c2nc3ccccc3c(=O)n2CCOc2ccc(C)cc2C)cc1`, in [9], the EC50 is 15200 nM (active).

Turning to `Cn1cc(Nc2ncc(Cl)c(Nc3ccccc3)n2)cn1`, the inhibition constant Ki in experiment [10] was 1580 nM (active); in experiment [11], 2000 nM (active).

By AC50 is commonly meant the concentration giving half of the maximal activity seen. Take `CCOc1cc(N2CCOCC2)c(OCC)cc1NC(=O)COC(=O)[C@H](Cc1c[nH]c2ccccc12)NC(C)=O`: in [12], the AC50 is 19500 nM (active).

`COc1ccc(Oc2c(Cl)cnn(Cc3cccc4ccccc34)c2=O)c(F)c1`: the IC50 in [13] was 6240 nM (active).

As for `S=C(NCc1ccccn1)Nc1ccc(Br)cc1Cl`, the IC50 is > 66000 nM (inactive) in experiment [14], 1580 nM (active) in experiment [15], > 66000 nM (inactive) in experiment [16] and 3840 nM (active) in experiment [17].

Consider `CCCCn1c(=O)c2ccccc2n2c(SCCS(=O)(=O)c3ccccc3)nnc12`, for which the IC50 in [18] and in experiment [19] was > 99000 nM (inactive) in each case.

As for `Nc1nc(Nc2ccc(S(N)(=O)=O)cc2)nn1C(=O)c1c(F)cccc1F` [JNJ-7706621], the Ki is 25.1 nM (active) in experiment [20]; 2000 nM (active) in experiment [21]; 2000 nM (active) in experiment [22]; 794 nM (active) in experiment [23]; 794 nM (active) in experiment [24]; 100 nM (active) in experiment [25]. Moreover, the inhibition constant (Ki) in experiment [26] was 2000 nM (active); in experiment [27], 1580 nM (active); in [28], 158 nM (active); in experiment [29] it was 631 nM (active); in experiment [30], > 1580 nM (inactive); in [31], 251 nM (active). In addition, the values for the Ki in experiment [32], in [33] and in experiment [34] were > 2000 nM (inactive), 501 nM (active) and 100 nM (active), respectively.

Consider `CCCCn1c(N)c(N(CCC(C)C)C(=O)C2CCCN(C(=O)c3ccc(Cl)cc3)C2)c(=O)[nH]c1=O` (stereo not given), for which the EC50 in experiment [35] was 21300 nM (active).

These data come from ChEMBL document CHEMBL1201862, “PubChem BioAssay data set” (2004).
